System: 743489-274-T-PDC complex spheroid viability
Assay: Anticancer human tumor 743489-274-T-PDC patient-derived renal cell carcinoma cell line growth inhibition
Settings: for IC50: curve of first compound; for viability, T/C: stronger effect = lower value
Summary of the method: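 Multicellular complex spheroids of tumor cells with human endothelial cells (HUVEC) and mesenchymal stem cells; the LSD1 inhibitor iadademstat was combined with standard-of-care or investigational agents. Top concentration at or near clinical Cmax, half-log dilutions; final DMSO ≤0.25%.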
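Also: spheroids exposed to compounds for 7 days before readout.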
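For viability, T/C in this document: 100% = DMSO vehicle control wells.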

CC[C@@]1(O)C(=O)OCc2c1cc1n(c2=O)Cc2cc3c(CN(C)C)c(O)ccc3nc2-1 + NC1CCC(NC2CC2c2ccccc2)CC1
IC50 (second compound 0.1 µM): > 100 nM | IC50 (second compound 0.316 µM): > 100 nM | IC50 (second compound 1 µM): > 100 nM | IC50 (second compound 3.16 µM): > 100 nM | IC50 (second compound 10 µM): > 100 nM | viability, T/C (second compound 0.1 µM, first compound 0.000316 µM): 119% | viability, T/C (second compound 0.1 µM, first compound 0.001 µM): 103% | viability, T/C (second compound 0.1 µM, first compound 0.00316 µM): 116% | viability, T/C (second compound 0.1 µM, first compound 0.01 µM): 89.5% | viability, T/C (second compound 0.1 µM, first compound 0.0316 µM): 75.6% | viability, T/C (second compound 0.1 µM, first compound 0.1 µM): 89.9% | viability, T/C (second compound 0.316 µM, first compound 0.000316 µM): 107% | viability, T/C (second compound 0.316 µM, first compound 0.001 µM): 122% | viability, T/C (second compound 0.316 µM, first compound 0.00316 µM): 114% | viability, T/C (second compound 0.316 µM, first compound 0.01 µM): 93.3% | viability, T/C (second compound 0.316 µM, first compound 0.0316 µM): 96.5% | viability, T/C (second compound 0.316 µM, first compound 0.1 µM): 81.1% | viability, T/C (second compound 1 µM, first compound 0.000316 µM): 120% | viability, T/C (second compound 1 µM, first compound 0.001 µM): 122% | viability, T/C (second compound 1 µM, first compound 0.00316 µM): 90.3% | viability, T/C (second compound 1 µM, first compound 0.01 µM): 95.5% | viability, T/C (second compound 1 µM, first compound 0.0316 µM): 77.8% | viability, T/C (second compound 1 µM, first compound 0.1 µM): 81.8% | viability, T/C (second compound 3.16 µM, first compound 0.000316 µM): 120% | viability, T/C (second compound 3.16 µM, first compound 0.001 µM): 110% | viability, T/C (second compound 3.16 µM, first compound 0.00316 µM): 115% | viability, T/C (second compound 3.16 µM, first compound 0.01 µM): 78.2% | viability, T/C (second compound 3.16 µM, first compound 0.0316 µM): 87.3% | viability, T/C (second compound 3.16 µM, first compound 0.1 µM): 71.2% | viability, T/C (second compound 10 µM, first compound 0.000316 µM): 120% | viability, T/C (second compound 10 µM, first compound 0.001 µM): 127% | viability, T/C (second compound 10 µM, first compound 0.00316 µM): 101% | viability, T/C (second compound 10 µM, first compound 0.01 µM): 104% | viability, T/C (second compound 10 µM, first compound 0.0316 µM): 85.1% | viability, T/C (second compound 10 µM, first compound 0.1 µM): 78.9%

CCc1c2c(nc3ccc(O)cc13)-c1cc3c(c(=O)n1C2)COC(=O)[C@]3(O)CC + NC1CCC(NC2CC2c2ccccc2)CC1
IC50 (second compound 0.1 µM): 65.9 nM | IC50 (second compound 0.316 µM): 28.6 nM | IC50 (second compound 1 µM): 47.8 nM | IC50 (second compound 3.16 µM): 22.1 nM | IC50 (second compound 10 µM): 215 nM | viability, T/C (second compound 0.1 µM, first compound 0.000949 µM): 86.3% | viability, T/C (second compound 0.1 µM, first compound 0.003 µM): 68.7% | viability, T/C (second compound 0.1 µM, first compound 0.00949 µM): 62.7% | viability, T/C (second compound 0.1 µM, first compound 0.03 µM): 43.7% | viability, T/C (second compound 0.1 µM, first compound 0.0949 µM): 54.4% | viability, T/C (second compound 0.1 µM, first compound 0.3 µM): 47.8% | viability, T/C (second compound 0.316 µM, first compound 0.000949 µM): 96.8% | viability, T/C (second compound 0.316 µM, first compound 0.003 µM): 72.7% | viability, T/C (second compound 0.316 µM, first compound 0.00949 µM): 54.2% | viability, T/C (second compound 0.316 µM, first compound 0.03 µM): 46.7% | viability, T/C (second compound 0.316 µM, first compound 0.0949 µM): 49.9% | viability, T/C (second compound 0.316 µM, first compound 0.3 µM): 51.4% | viability, T/C (second compound 1 µM, first compound 0.000949 µM): 94.5% | viability, T/C (second compound 1 µM, first compound 0.003 µM): 70.6% | viability, T/C (second compound 1 µM, first compound 0.00949 µM): 70% | viability, T/C (second compound 1 µM, first compound 0.03 µM): 50.4% | viability, T/C (second compound 1 µM, first compound 0.0949 µM): 42.1% | viability, T/C (second compound 1 µM, first compound 0.3 µM): 44% | viability, T/C (second compound 3.16 µM, first compound 0.000949 µM): 95.2% | viability, T/C (second compound 3.16 µM, first compound 0.003 µM): 92.8% | viability, T/C (second compound 3.16 µM, first compound 0.00949 µM): 62.1% | viability, T/C (second compound 3.16 µM, first compound 0.03 µM): 48.2% | viability, T/C (second compound 3.16 µM, first compound 0.0949 µM): 41.3% | viability, T/C (second compound 3.16 µM, first compound 0.3 µM): 44% | viability, T/C (second compound 10 µM, first compound 0.000949 µM): 89.8% | viability, T/C (second compound 10 µM, first compound 0.003 µM): 79.1% | viability, T/C (second compound 10 µM, first compound 0.00949 µM): 64.5% | viability, T/C (second compound 10 µM, first compound 0.03 µM): 69.4% | viability, T/C (second compound 10 µM, first compound 0.0949 µM): 51.3% | viability, T/C (second compound 10 µM, first compound 0.3 µM): 48.5%

Source: PubChem BioAssay AID1918942 (Molecular Pharmacology Branch, DTP, NCI, 2023)
